Data: patent US11325892B2, “Compounds and methods for treating cancer” (Mayo Foundation for Medical Education and Research, priority 2014, dated 2022)
pIC50: −log10 of the molar value.

Assays:
[1] = tested on: A498, ACHN, and Caki1 cell lines; assay: Oleic acid (OA) rescue assay of cell proliferation in ccRCC cells; format: cell-based; settings: EC50 dose of compound with OA (5 μg/μL); all three cell lines
Experimental: (§1) Cells were seeded at 5,000 cells/well in clear-bottom 96-well plates in triplicate in Maintenance Media. Drug treatment was applied at a concentration of 1:1000 in reduced serum (3%) Maintenance Media. After 72 hours, cells were washed with PBS, and stored at −80° C. prior to analysis using CyQuant® Proliferation Analysis Kit (Invitrogen) as per manufacturers' protocol for relative fluorescence units. Alternatively, cells were plated 2×10^5/well in 12-well plates (Midwest Scientific) in triplicate prior to drug treatment. After 120 hour treatment, cell number was established using a Coulter Particle Counter (Beckman). Or, cells were plated (0.5 or 1×10^5/well) in 24-well plates (Midwest Scientific), 3×. After 72 hour treatment, cell number established using Coulter Particle Counter (Beckman). Oleic acid-albumin (Sigma Aldrich) was added to media at 5 μM, and was applied adjuvant to drug treatment. Drug stocks were prepared in DMSO (Sigma) at 1000×. EC50 dosing per cell line was calculated using CalcuSyn® analytical software.
A498, ACHN, and Caki1 cell lines were treated with the EC50 dose of each MF-438, ChemBL375265, SSI-1, SSI-4, SSI-3, and SSI-2 with or without concomitant application of OA (5 μg/μL). […] Representative images of A498 cell morphology and density treated with each compound +/−OA are shown in (FIG. 2B).

[2] = tested on: ATF6-UPRE luciferase reporter in A498 and ACHN cells; assay: ATF6-UPRE luciferase reporter assay; format: cell-based; settings: EC50 dose
Experimental: A498 and ACHN cells were transiently transfected with p5×ATF6-GL3 UPR luciferase reporter (Addgene plasmid#11976) and pRL-CMV-renilla (Promega) using Lipofectamine 2000 (Invitrogen). Cells were treated as indicated for 24H, prior to collection and analysis using Promega Dual Luciferase assay kit per manufacturer's specifications. Luciferase activity was measured using Veritas Luminometer (Promega); and results are reported as relative luminescence.
(§2) Activating transcription factor 6 (ATF6) is a key regulator of the unfolded protein response (UPR) that recognizes unfolded protein response elements (UPRE) in the promoter regions of several key mediators of the ER stress response, initiating their transcription (Wang Y, Shen J, Arenzana N, Tirasophon W, Kaufman R J, Prywes R. Activation of ATF6 and an ATF6 DNA binding site by the endoplasmic reticulum stress response. J Biol Chem. Sep. 1, 2000; 275(35):27013-27020). A498 and ACHN transfected with an ATF6-UPRE luciferase reporter were treated with the EC50 doses of ChemBL375265, SSI-1, SSI-4, SSI-3, and SSI-2 with or without OA supplementation were evaluated in order to determine whether the identified compounds could recapitulate activation of the UPR. […] Upregulation of the UPR markers BiP (heat shock 70 kDa protein, GRP78) and CHOP (damage inducible transcript 3, DDIT3) was evaluated by Western blot in A498 and ACHN cells treated with the EC50 doses of ChemBL375265, SSI-1, SSI-4, SSI-3, and SSI-2 with or without OA supplementation.

[3] = tested on: BiP and CHOP expression in A498 and ACHN cells; assay: Western blot for UPR markers BiP and CHOP; format: cell-based; settings: EC50 dose; both cell lines; blocked with concomitant OA treatment
Experimental: (§3) Protein extraction and western blot analysis was performed as previously described (Copland J A, Marlow L A, Kurakata S, et al. Novel high-affinity PPARgamma agonist alone and in combination with paclitaxel inhibits human anaplastic thyroid carcinoma tumor growth via p21WAF1/CIP1. Oncogene. Apr 13 2006; 25(16):2304-2317). Primary antibodies included SCD1 (Sigma-Aldrich, #HPA012107), BiP (Cell Signaling, #3183), CHOP (Cell Signaling, #2895), sXBP1(Santa Cruz Biotechnology, #sc-7160), PARP(Cell Signaling, #9542), and β-actin (Sigma-Aldrich, #A5441).
as §2

SCD1 = target: T1, SCD1 (Homo sapiens, UniProt O00767); settings: known inhibitors; cited from earlier work
T1 sequence (O00767 1-359): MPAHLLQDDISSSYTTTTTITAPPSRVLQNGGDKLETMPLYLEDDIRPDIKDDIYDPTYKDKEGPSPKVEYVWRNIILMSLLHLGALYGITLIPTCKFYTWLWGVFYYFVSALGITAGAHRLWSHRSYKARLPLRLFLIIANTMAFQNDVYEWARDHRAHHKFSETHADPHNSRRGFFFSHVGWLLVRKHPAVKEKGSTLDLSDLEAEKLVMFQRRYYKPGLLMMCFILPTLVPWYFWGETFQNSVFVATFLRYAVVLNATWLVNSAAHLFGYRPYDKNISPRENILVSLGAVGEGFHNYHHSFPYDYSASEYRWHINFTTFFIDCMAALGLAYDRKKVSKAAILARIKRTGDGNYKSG

[4] = tested on: HK2, a transformed renal epithelial cell line; assay: High-throughput proliferative screen, non-cancerous cells; format: cell-based
Experimental: as §1
In order to identify potential SCD1 inhibitors, a high-throughput proliferative-based screening method was used, with four ccRCC cell lines including A498, ACHN, Caki1, and Caki2. The SCD1 inhibitor MF-438 was included as a positive control. Known compounds ChemBL375265 (Liu G, Lynch J K, Freeman J, et al. Discovery of potent, selective, orally bioavailable stearoyl-CoA desaturase 1 inhibitors. Journal of medicinal chemistry. Jun. 28, 2007; 50(13): 3086-3100) (SetA.100) and SAR707 (Voss M D, Zoller G, Matter H, et al. Discovery and pharmacological characterization of SAR707 as novel and selective small molecule inhibitor of stearoyl-CoA desaturase (SCD1). European journal of pharmacology. May 5, 2013; 707(1-3): 140-146) (TC03.100) were included as single-blinded positive controls, and are indicated with an asterisk (*). […]

kidney cancer cells = assay: Combination with mTor inhibitor temsirolimus, cell proliferation; format: cell-based; settings: different concentrations with 0, 0.1, 1, and 10 nM temsirolimus
ATC cells = assay: Proliferative dose response of thyroid cells; format: cell-based; settings: THJ29T, THJ16T, and KTC2; 72H
Experimental: as §1
The efficacy of pharmacologic inhibition of this enzyme on tumor cell proliferation after a 72H treatment was determined, using A939572-a commercially available small molecule SCD1 inhibitor (Xin Z, Zhao H, Serby M D, Liu B, Liu M, Szczepankiewicz B G, Nelson L T, Smith H T, Suhar T S, Janis R S, Cao N, Camp H S, Collins C A, Sham H L, Surowy T K, Liu G. Discovery of piperidine-aryl urea-based stearoyl-CoA desaturase 1 inhibitors. Bioorg Med Chem Lett. 2008; 18(15):4298-302). […] Despite conspicuous SCD1 expression in 4 of the 5 FTC cells tested, no response to A939572 was observed (FIG. 10D).
THJ29T, THJ16T, and KTC2 were treated with carfilzomib (FIG. 12A) or bortezomib for 72H in order to establish EC50 values. […] Anti-proliferative drug synergy was evaluated in THJ29T and THJ16T treated with either A939572 or MF-438 in combination with either bortezomib or carfilzomib for 48H. Synergy was assessed using CalcuSyn analytical software, which determines the combination index (CI) based on the Chou-Talalay method where CI values >1 represent an antagonistic effect and values <1 represent synergy, and lower values signify enhanced synergy (Chou T C, Talalay P. Analysis of Combined Drug Effects—a New Look at a Very Old Problem. Trends in Pharmacological Sciences. 1983; 4(11):450-4).

[5] = tested on: PARP cleavage and CHOP expression in THJ29T and THJ16T; assay: Western blot for PARP cleavage and CHOP expression, combinatorial therapy; format: cell-based; settings: EC50 doses, 48H
Experimental: as §3
THJ29T and THJ16T treated for 48H with EC50 doses of either A939572 or MF-438 in combination with either carfilzomib or bortezomib were probed for PARP cleavage and CHOP expression, both markers indicative of apoptosis (FIGS. 14A-B, 15A-B). […] Cell death was additionally examined via flow cytometry using propidium iodide staining. THJ29T and THJ16T were treated for 48H with EC50 doses of either A939572 or MF-438 in combination with either carfilzomib or bortezomib prior to staining and analysis.

[6] = tested on: THJ16T ATC cell xenograft; assay: THJ16T xenograft model; format: in vivo, female athymic nu/nu mice
Experimental: Formalin-fixed, paraffin-embedded subject tissues were mounted on slides, blocked with Diluent (DakoCytomation) for 30 min, and then probed for SCD (Sigma-Aldrich, #HPA012107). IHC scoring was performed as previously described (von Roemeling C A, Marlow L A, Wei J J, et al. Stearoyl-CoA desaturase 1 is a novel molecular therapeutic target for clear cell renal cell carcinoma. Clin Cancer Res. May 1 2013; 19(9):2368-2380). Cases where insufficient tumor tissue presented were excluded. 20× images were obtained using Scanscope XT and Imagescope software.
1×10^6 THJ16T ATC cells were subcutaneously injected in female athymic nu/nu mice (Harlan Laboratories). Treatment was initiated once tumor volumes reached 50-100 mm^3. MF-438 was suspended in 0.5% carboxymethyl-cellulose containing strawberry drink flavoring(0.1 g/mL) in sterilized H2O at 25 mg/kg in a 100 μl dose, and administered via oral gavage once daily. Carfilzomib was solubilized in DMSO (4% of FC), suspended in 100% corn oil at 4 mg/kg per 50 uL dose and administered via intraperitoneal injection twice weekly on consecutive days. Tumor volume(0.5236[L*W*H]) and body weight were measured 2×/week. N=10 mice/group.
MF-438 was tested in combination with carfilzomib in vivo in a THJ16T xenograft model. […] J Clin Endocrinol Metab. 2010; 95(12):5338-47). […] Saline was administered as necessary. These adverse events resolved 24-48 hours after the second administration of carfilzomib. […] However, no other significant adverse events were observed. […] IHC analysis of tumors resected from each treatment group was performed.

[7] = 24H, both cell lines A498 and ACHN, completely blocked with OA

O=C(NCc1ccnc(OCc2ccccc2)c1)N1CCN(C(=O)c2ccccc2C(F)(F)F)CC1 [SSI-3]
rescue of cell proliferation with OA [1]: Near total rescue of cell proliferation | luciferase activity ([2]; ACHN cells): induced reversible luciferase activity | BiP and CHOP expression [3]: strongly induced both BiP and CHOP expression

CNC(=O)c1ccc(N2CCC(Oc3ccccc3Cl)CC2)nn1 [ChemBL375265]
rescue of cell proliferation with OA [1]: Near total rescue of cell proliferation | luciferase activity [2, 7]: significant upregulation of luciferase activity | BiP and CHOP expression [3]: strongly induced both BiP and CHOP expression | pIC50 (SCD1): 6.40

O=C(Nc1ccc(OCc2ccccc2)nc1)N1CCN(C(=O)c2ccccc2C(F)(F)F)CC1 [SSI-2, 2-(benzyloxy)-5-{[hydroxy({4-[2-(trifluoromethyl)benzoyl]piperazin-1-yl})methyl]amino}-1,2-dihydropyridin-2-ylium-1-ide]
rescue of cell proliferation with OA [1]: Near total rescue of cell proliferation | luciferase activity [2, 7]: significant upregulation of luciferase activity | BiP and CHOP expression [3]: strongly induced both BiP and CHOP expression | reduction in cell proliferation [4]: approximately 20% | kidney cancer cell proliferation (kidney cancer cells): reduced kidney cancer cell proliferation

CC(C)C[C@H](NC(=O)[C@H](CCc1ccccc1)NC(=O)CN1CCOCC1)C(=O)N[C@@H](Cc1ccccc1)C(=O)N[C@@H](CC(C)C)C(=O)[C@@]1(C)CO1 [carfilzomib]
EC50 (ATC cells): low nanomolar dose range | PARP cleavage as compared to DMSO control [5]: significant PARP cleavage | reduction in mean tumor burden as compared to the placebo control ([6]; MF-438 25 mg/kg oral once daily, carfilzomib 4 mg/kg i.p. twice weekly): 21% | tumor response / mean tumor volume course ([6]; THJ16T xenograft): temporarily plateau | adverse events ([6]; mice bearing THJ16T xenograft): Dehydration and acute inflammation | survivin expression (IHC) ([6]; mouse, in vivo): induced survivin expression | CD31 (IHC), tumor vascularization ([6]; versus placebo control): trend toward decreased CD31 | ki67 staining (IHC of resected tumors) ([6]; versus placebo control): trend of decreased ki67 staining | cleaved caspase-3 (IHC) ([6]; versus placebo control, only the combination group achieved statistical significance): increased cleaved caspase-3 | HERPUD1 (IHC), marker for ER stress ([6]; versus placebo control, statistically significant combinatorial values): Increased HERPUD1

CC(C)C[C@H](NC(=O)[C@H](Cc1ccccc1)NC(=O)c1cnccn1)B(O)O [bortezomib]
EC50 (ATC cells): low nanomolar dose range

CNC(=O)c1ccccc1OCC(=O)N1CCN(C(=O)c2ccccc2C(F)(F)F)CC1 [SSI-1, N-Methyl-2-(2-oxo-2-{4-[2-(trifluoromethyl)benzoyl]piperazin-1-yl}ethoxy)benzamide]
rescue of cell proliferation with OA [1]: Near total rescue of cell proliferation | luciferase activity [2, 7]: significant upregulation of luciferase activity | BiP and CHOP expression [3]: strongly induced both BiP and CHOP expression
